Ends that are not written are not given here.
What was measured:
db/db mice = db/db mice model of type 2 diabetes, chronic treatment; type: in vivo, mouse
Excerpt: The aim was to determine the activity of IB(s) peptides and all-D retro-inverso IB(s) peptides and variants thereof in the treatment of Diabetes Type 2, particularly to determine the effect of chronic treatment with XG-102 (SEQ ID NO: 233) in the db/db mice model of type 2 diabetes by evaluating fasting blood glucose levels every third day (28 days)
(§1) a) Materials and Methods • i) Animals • A total of twenty (20) male db/db mice (8 weeks old) were obtained from Charles River (Germany). Upon arrival, animals were group housed (n=6-7/group) and offered regular rodent chow (Altromin standard #1324 chow; C. Petersen, Ringsted, Denmark) and water ad libitum unless otherwise stated. • The mice were housed under a 12:12 L/D cycle (lights on at 4:00 and lights off at 16:00) and in temperature and humidity controlled rooms. • ii) Groups and Randomization • On day −4, mice were randomized according to blood glucose level (fasted; blood glucose measured on Biosen S line analyzer (EKF diagnostic, Germany) to participate in one of the following drug treatment groups (n=6): • 1) Vehicle control, S.C. (physiological saline) • 2) XG-102 (SEQ ID NO: 233); 1 mg/kg; s.c. • 3) XG-102 (SEQ ID NO: 233); 10 mg/kg; s.c • All doses listed were calculated for the free-base. Drug purity: 95.28%, peptide content: 78.0%. All compounds were administered sub-cutaneously (s.c.) in a volume of 3 ml/kg. The formulation instructions for vehicle control and XG-102 (SEQ ID NO: 233) were as follows: • First, XG-102 (SEQ ID NO: 233) was dissolved in the vehicle. The formulations (concentrations of 0.33 and 3.3 mg/ml, corresponding to the doses of 1 and 10 mg/kg, respectively) were prepared according to the procedure detailed below. Concentrations were calculated and expressed taking into account test items purity and peptide content (multiplier coefficient was 1.346). • Preparation of a stock solution: the freeze-dried test compound XG-102 (SEQ ID NO: 233) is thawed for one hour minimum and prepared as a stock solution in the vehicle at 1 mM (corresponding to 3.823 mg/mL). Aliquots are prepared for each treatment day and stored at approximately −80° C. Dilutions of this stock solution to the required concentrations are performed on each treatment day; • Storage of the stock solution: at approximately −80° C.; • Storage of the diluted preparations: at room temperature for 24 hours maximum. • Prior to solubilisation, the powder was stored at −20° C. The stability of the stock solution is 3 months at approximately −80° C.; the stability of the diluted formulations for animal dosing is 24 hours at room temperature. Unused diluted material could be stored for up to 7 days if kept at 4-8° C.
c) Experimental Procedure • Following 8 days of acclimatization the mice were treated daily at 08.00 AM for 21 days by SC dosing 8 hours prior to lights out at 04.00 PM according to the outline groups. […] Mice were stratified into two sub-teams of n=6-7 and subsequently the metabolic characterisation were performed on study days 71-72. • iii) Adipokine Panel • Groups 1+3: On three occasions (study days 57, 66 and 108) blood was collected from the tail vein using EDTA coated hematocrite tubes (100 μl). Following centrifugation of blood the plasma was collected and stored at −20° C. until measurement. Then, the following panel of adipokines/cytokines was determined using Luminex based 7-plex: leptin, resistin, MCP-1, PAI-1, TNF, insulin and interleukin-6 (IL-6). • iv) Termination • Groups 1+3 (day 111): The following organs were excised and weighed:
inguinal subcutaneous fat, epididymal fat, retroperitoneal fat, brain, liver, kidney, spleen and heart. All organs described above were samples in 4% PFA for possible future histo-pathological examination. Also, pancreas (en bloc) was sampled for possible stereological and imunohistochemical analysis, and eyes were sampled for possible later analysis of retinopathy. Group 2 (day 28): No tissues or plasma were collected.

[1] = Stability of XG-102 stock solution and diluted formulations; type: physicochemical
Excerpt: as §1, with “The stability of the stock solution is 3 months at approximately −80° C.; the stability of the diluted formulations for animal dosing is 24 hours at room temperature. Unused diluted material could be stored for up to 7 days if kept at 4-8° C.” left out

TC-3 cells = assay: Inhibition of IL-1 induced pancreatic beta-cell death; type: cell-based; settings: 1 μM single addition, IL-1 10 ng/ml, two days
Description: Inhibition of IL-1 induced pancreatic beta-cell death by the D-TAT-IB1(s) peptide was analyzed. TC-3 cells were incubated for 30 minutes with one single addition of the indicated peptides (1, μM), then IL-1 (10 ng/ml) was added.
Apoptotic cells were then counted after two days of incubation with IL-1 by use of Propidium Iodide and Hoechst 33342 nuclear staining. A minimum of 1,000 cells were counted for each experiment.
Long term inhibition of IL-1P induced cell-death by the D-TAT-IB1 peptide was also analyzed. TC-3 cells were incubated for 30 minutes with one single addition of the indicated peptides (1 μM), then IL-1 (10 ng/ml) was added, followed by addition of the cytokine every two days. Apoptotic cells were then counted after 15 days of incubation with IL-1 by use of propidium iodide and Hoechst 33342 nuclear staining. […] A minimum of 1.000 cells were counted for each experiment.

## dqsrpvqpflnIttprkprpprrrqrrkkrg (DQSRPVQPFLNLTTPRKPRPPRRRQRRKKRG; not fully specified (some residues); printed as dqsrpvqpflnIttprkprpprrrqrrkkrg) [XG-102]
db/db mice; 1 mg/kg, 28 days of dosing
  body weight vs vehicle: no effect
  fasting blood glucose vs vehicle: no effect
db/db mice; 10 mg/kg
  dosing time until blood glucose effect evident: 14 days
  fasting blood glucose plateau: approximately 5 mmol/L
db/db mice; 10 mg/kg s.c. daily for 21 days, wash-out to day 111
  fasting blood glucose vs vehicle: clear and significant (p<0.001) decrease
db/db mice; 10 mg/kg, day 111
  tissue weight of brain, spleen and heart: no significant effects
  tissue weight of fat pads at termination: a significant decrease of epididymal (p<0.05) and retroperitoneal (p<0.01) fat mass
  tissue weight of kidney and liver: a significant decrease of kidney (p<0.05) and liver (p<0.01) mass
db/db mice; 10 mg/kg, from day 28 to day 111
  body weight vs vehicle: clear and significant (p<0.001) prevention of body weight increase
db/db mice; acute dosing period
  general observations: sedation: no signs of sedation
db/db mice; group B (1 mg/kg s.c. daily)
  reaction of subcutaneous tissue at injection site: mild nodular fibrosis was observed
db/db mice; high dose (10 mg/kg s.c. daily), after approximately two weeks
  reaction of subcutaneous tissue at injection site: nodular fibrosis was observed in the subcutaneous tissue
[1]; 1 mM in vehicle, approximately −80° C.
  stability of the stock solution: 3 months
[1]; 4-8° C.
  storage of unused diluted material: up to 7 days
[1]; room temperature
  stability of the diluted formulations for animal dosing: 24 h
TC-3 cells
  IL-1 induced apoptosis: decreased IL-1 induced apoptosis to a similar extent as L-TAT-IB peptides
